Results on eight compounds are retold here after ChEMBL document CHEMBL1131172 (J Med Chem, 1998).

Experiment [1] addresses T1, Bifunctional dihydrofolate reductase-thymidylate synthase (Toxoplasma gondii, UniProt Q07422).
T1 sequence (Q07422 whole entry): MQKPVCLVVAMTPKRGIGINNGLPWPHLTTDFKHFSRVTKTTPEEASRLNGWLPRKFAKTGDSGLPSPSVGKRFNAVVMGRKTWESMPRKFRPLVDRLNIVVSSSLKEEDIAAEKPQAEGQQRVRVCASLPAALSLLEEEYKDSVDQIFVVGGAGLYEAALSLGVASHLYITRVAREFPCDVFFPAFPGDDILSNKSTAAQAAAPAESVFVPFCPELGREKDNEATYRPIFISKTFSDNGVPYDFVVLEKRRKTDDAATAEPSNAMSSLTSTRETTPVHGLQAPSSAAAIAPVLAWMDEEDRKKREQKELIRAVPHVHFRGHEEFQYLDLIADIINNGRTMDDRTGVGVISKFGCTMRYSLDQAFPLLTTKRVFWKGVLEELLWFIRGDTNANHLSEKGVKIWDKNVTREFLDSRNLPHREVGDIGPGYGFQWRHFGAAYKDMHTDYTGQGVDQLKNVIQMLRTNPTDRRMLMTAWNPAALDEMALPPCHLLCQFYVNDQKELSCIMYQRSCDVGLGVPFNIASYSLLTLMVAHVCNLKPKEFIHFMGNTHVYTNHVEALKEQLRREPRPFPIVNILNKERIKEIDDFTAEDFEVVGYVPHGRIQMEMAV
Description: Inhibitory activity against dihydrofolate reductase (DHFR) from Toxoplasma gondii

The target of experiment [2] is T2, Dihydrofolate reductase (Pneumocystis carinii, UniProt P16184).
T2 sequence (P16184 whole entry): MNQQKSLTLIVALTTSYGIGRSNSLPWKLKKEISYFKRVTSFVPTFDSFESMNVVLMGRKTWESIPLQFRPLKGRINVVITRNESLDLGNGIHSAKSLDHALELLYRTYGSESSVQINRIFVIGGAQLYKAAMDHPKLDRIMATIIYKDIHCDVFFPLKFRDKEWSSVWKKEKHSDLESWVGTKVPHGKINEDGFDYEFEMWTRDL
Description: Inhibitory activity against dihydrofolate reductase (DHFR) from Pneumocystis carinii

The target in experiment [3] is T3, Dihydrofolate reductase (Rattus norvegicus, UniProt Q920D2).
T3 sequence (Q920D2 whole entry): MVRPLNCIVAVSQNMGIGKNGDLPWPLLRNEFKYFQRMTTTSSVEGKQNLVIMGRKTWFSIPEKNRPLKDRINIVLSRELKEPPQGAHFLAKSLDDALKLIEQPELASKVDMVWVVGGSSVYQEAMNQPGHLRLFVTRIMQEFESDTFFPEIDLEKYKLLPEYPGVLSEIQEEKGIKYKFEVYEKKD
Description: Inhibitory activity against dihydrofolate reductase (DHFR) from rat liver

Experiment [4] has as its system UO-31. As to the kind of experiment: Inhibition of the growth of renal cancer(UO-31) cell line at 0.01 uM. The format is functional. Particulars: Homo sapiens.
The test system of experiment [5] is SF-295. In words: inhibition of the growth of CNS cancer(SF-295) cell line. Type of experiment: functional. The conditions noted are these: Homo sapiens.
The subject of experiment [6] is RPMI-8226. As to the kind of experiment: inhibition of the growth of leukemia (RPMI-8226) cell line. Type of experiment: functional. The conditions noted are these: Homo sapiens.
In experiment [7] the test system is UO-31. As to the kind of experiment: inhibition of the growth of renal cancer(UO-31) cell line. The format is functional. The conditions noted are these: Homo sapiens.
For experiment [8], the system named is IGROV-1. As to the kind of experiment: inhibition of the growth of ovarian cancer(IGROVI) cell line. Type of experiment: functional. Particulars: Homo sapiens.
Experiment [9] has as its system NCI-H23. In words: inhibition of the growth of non-small-cell lung cancer (NCI-H23) cell line. The conditions noted are these: Homo sapiens. Type of experiment: functional.
For experiment [10], the system named is CAKI-1. As to the kind of experiment: inhibition of the growth of renal cancer(CAKI-1) cell line. The conditions noted are these: Homo sapiens. Type of experiment: functional.
Experiment [11] deals with SF-539. As to the kind of experiment: inhibition of the growth of CNS cancer(SF-539) cell line. The format is functional. Particulars: Homo sapiens.
Experiment [12] deals with SF-268. In words: inhibition of the growth of CNS cancer(SF-268) cell line. The format is functional. The conditions noted are these: Homo sapiens.
In experiment [13] the test system is SK-MEL-5. In words: inhibition of the growth of melanoma cancer (SK-MEL-5) cell line. Type of experiment: functional. Particulars: Homo sapiens.
Experiment [14] concerns HCT-116. As to the kind of experiment: inhibition of the growth of colon cancer(HCT116) cell line. Type of experiment: functional. Particulars: Homo sapiens.
For experiment [15], the system named is M14. As to the kind of experiment: inhibition of the growth of melanoma cancer (M14) cell line. The format is functional. The conditions noted are these: Homo sapiens.
Experiment [16] has as its system NCI-H322M. In words: inhibition of the growth of non-small-cell lung cancer (NCI-H322M) cell line. Particulars: Homo sapiens. Type of experiment: functional.
For experiment [17], the system named is MCF7. In words: inhibition of the growth of breast cancer (MCF-7) cell line. The format is functional. The conditions noted are these: Homo sapiens.
The test system of experiment [18] is MDA-MB-435. In words: inhibition of the growth of breast cancer (MDA-MB-435) cell line. The format is functional. The conditions noted are these: Homo sapiens.
In experiment [19] the test system is SNB-19. In words: inhibition of the growth of CNS cancer(SNB-19) cell line. The format is functional. The conditions noted are these: Homo sapiens.
For experiment [20], the system named is 786-0. In words: inhibition of the growth of renal cancer(786-0) cell line. The conditions noted are these: Homo sapiens. The format is functional.
In experiment [21] the test system is NCI/ADR-RES. As to the kind of experiment: inhibition of the growth of breast cancer (MCF7/ADR-RES) cell line. The conditions noted are these: Homo sapiens. Type of experiment: functional.
Experiment [22] deals with NCI-H460. As to the kind of experiment: inhibition of the growth of non-small-cell lung cancer (NCI-H460) cell line. Type of experiment: functional. The conditions noted are these: Homo sapiens.
The subject of experiment [23] is HCT-15. As to the kind of experiment: inhibition of the growth of colon cancer(HCT-15) cell line. Type of experiment: functional. The conditions noted are these: Homo sapiens.
Experiment [24] deals with A549. As to the kind of experiment: inhibition of the growth of non-small-cell lung cancer (A549/ATCC) cell line. The format is functional. Particulars: Homo sapiens.
In experiment [25] the test system is KM12. In words: inhibition of the growth of colon cancer(KM-12) cell line. The conditions noted are these: Homo sapiens. Type of experiment: functional.
For experiment [26], the system named is OVCAR-8. As to the kind of experiment: inhibition of the growth of ovarian cancer(OVCAR-8) cell line. The format is functional. Particulars: Homo sapiens.
The subject of experiment [27] is NCI-H522. As to the kind of experiment: inhibition of the growth of non-small-cell lung cancer (NCI-H522) cell line. The conditions noted are these: Homo sapiens. The format is functional.
Experiment [28] relates to MOLT-4. In words: inhibition of the growth of leukemia (MOLT-4) cell line. Type of experiment: functional. The conditions noted are these: Homo sapiens.
Experiment [29] concerns DU-145. In words: inhibition of the growth of prostate cancer(DU-145) cell line. Particulars: Homo sapiens. The format is functional.
The test system of experiment [30] is MDA-N. In words: inhibition of the growth of breast cancer(MDA-N) cell line. The format is functional. Particulars: Homo sapiens.
Experiment [31] concerns SR. In words: inhibition of the growth of leukemia(SR) cell line. The format is functional. Particulars: Homo sapiens.

The structures appear in SMILES notation.

A word on the IC50: it is the concentration that gives 50% inhibition. High values mean weaker potency, low ones greater potency. By inhibition is commonly meant the share of the control response that was lost under treatment. Higher therefore signals a response far below the control. What is called GI50 is the concentration at which growth is held to half of that of the control. High values mean lower sensitivity of the cells, low ones greater sensitivity of the cells.

As to `COc1ccc(Sc2ccc3nc(N)nc(N)c3n2)cc1`, the values for the IC50 in experiment [1], in experiment [2] and in experiment [3] were 45 nM, 700 nM and 75 nM, respectively.
Take `COc1ccc(Sc2ccc3nc(N)nc(N)c3n2)cc1OC`: the IC50 in [1] turned out to be 19 nM; in experiment [2], 86 nM; in [3], 18 nM.
`Nc1nc(N)c2nc(Nc3ccc(Cl)cc3)ccc2n1`: the IC50 in experiment [1] was found to be 830 nM; in [3], 820 nM.
On to `Nc1nc(N)c2nc(Nc3ccc4ccccc4c3)ccc2n1`, for which the values for the IC50 in [1], in [2] and in experiment [3] were 1100 nM, 15000 nM and 2000 nM, respectively.
Taken in the same sequence, the figures for `COc1cc(Nc2ccc3nc(N)nc(N)c3n2)cc(OC)c1OC` were 2400 nM, 25900 nM and 3200 nM.
For the compound `Nc1nc(N)c2nc(Nc3ccccc3)ccc2n1`, in experiment [4], the inhibition at 0.01 µM was found to be 57%. Further, the values for the IC50 in experiment [1], in experiment [2] and in experiment [3] were 300 nM, 8300 nM and 430 nM, respectively. Moreover, the GI50 in experiment [5] was 1430 nM; in [6], 670 nM; in [7], less than 10 nM; in experiment [8], 3270 nM; in [9], 3670 nM; in experiment [10] it was 3580 nM. For the same compound, the GI50 in experiment [11] turned out to be 2950 nM; in [12], 6050 nM; in [13], 830 nM; in experiment [14], 510 nM; in experiment [15], 1070 nM; in experiment [16] it was 8020 nM. Besides, the GI50 in [17] was 6450 nM; in experiment [18] it was 570 nM; in experiment [19] it was 1570 nM; in experiment [20], 890 nM; in experiment [21] it was 2690 nM; in [22], 430 nM. Besides, the GI50 in [23] amounted to 850 nM; in experiment [24] it was 640 nM; in [25] it was 5940 nM; in experiment [26], 990 nM; in experiment [27], 4260 nM; in experiment [28] it was 2180 nM. In addition, the GI50 in [29] turned out to be 4990 nM; in [30], 680 nM; in experiment [31], 2910 nM.
For the compound `COc1ccc(S(=O)(=O)c2ccc3nc(N)nc(N)c3n2)cc1OC`, the IC50 stood at 940 nM in experiment [1], 2700 nM in [2] and 880 nM in experiment [3].
For `COc1ccccc1Nc1ccc2nc(N)nc(N)c2n1`, the IC50 came to 460 nM in [1] and 260 nM in experiment [3].
